Measured values published in patent publication US20260294915A1, “COMBINATION THERAPY COMPRISING A MAT2A INHIBITOR AND A TOPOISOMERASE INHIBITOR, A SPLICING INHIBITOR SULFONAMIDE, OR A KIF18 INHIBITOR” (IDEAYA BIOSCIENCES, INC., priority 2023, published 2026).

What was measured:
Assay in all cases: 10-day proliferation (CTG), SPLAM titration + 1000 nM Compound A, Bliss (Example 5; Tables 12-19)
Format in all cases: cell-based
Set-up in all cases: key: GDI scale -100 to 100; 0 = cell number at T0; <0 cytotoxic
SW900 = details: SW900, 1000 nM Compound A
Protocol: (§1) Synergy was measured across the Indisulam titration with 1000 nM Compound A by Bliss Independence analysis. Bliss scores >10 are indicated by “*” and are considered synergistic. […] Synergy as reported using Bliss may be underrepresented within cytotoxic dose ranges. Growth death index values are shown for the combination titration and each single agent Compound A (Cmpd A) and Indisulam on a scale of −100 to 100 with the midpoint (0) being the number of cells at the beginning of the combination (T0). Scores less than 0 are indicated with “**” and are representative of a cytotoxic response. Bliss and GDI values are shown for five MTAP-deficient cell lines: NCI-1H838 (12A), SW900 (12B), RT112/84 (12C), UMUC5 (121D), and UMUC11 (12E).
(§2) A 10-day proliferation assay was performed in a panel of 5 MTAP-deficient and 2 wild type non-small cell lung and bladder cancer cell lines. Optimal cell seeding for all cell lines was determined by assessing the growth over a range of seeding densities in a 384-well format to identify conditions that permitted proliferation for 10 days. Cells were then plated at the optimal seeding density and treated with 20-point, two-fold dilution series of each of four structurally different SPLAMs in combination with a 1000 nM fixed concentration of Compound A. Single agent titrations for Compound A and each SPLAM were included for comparison. Concentrations tested for each SPLAM alone or in combination ranged from 0.04 nM to 20,000 nM. A plate of cells was harvested at the time of compound addition to quantify the number of cells at the start of the combination (T0). For cell quantification, the harvested cells were lysed with Promega CellTiter-Glo (CTG) reagent according to the manufacturer's protocol and the chemiluminescent signal was detected as described in Example 1 above. Cells were incubated with the drug combinations at 37° C. with 5% CO2 for 10 days. Cells were then lysed with CTG and the chemiluminescent signal was measured.
(§3) CTG values obtained after the 10-day treatment were background subtracted and expressed as a percent of the T0 value set at 100%. Data were plotted against compound concentration and fit with a four-parameter equation to generate single agent dose response curves. Percent inhibition was determined for each combination and single agent concentration compared to a DMSO control. In addition, the overall net growth or death of the cells was calculated and reported as a growth death index (GDI) value on a scale of −100 to 100 with the midpoint (0) being the number of cells at the beginning of the combination (T0).
(§4) Predicted inhibition was calculated using (Ea+Eb)−(Ea*Eb) where E equals the effect (inhibition) of each single agent (a and b). A difference between the observed inhibition percentage and the predicted inhibition percentage greater than 10% was considered synergistic. A Bliss score was only reported for combinations eliciting >20% growth inhibition (GDI value <80). Since Bliss is calculated based on growth inhibition, scores within cytotoxic dose ranges may not accurately reflect synergistic cytoxicity.
(§5) Synergy was measured across the E7820 titration with 1000 nM Compound A by Bliss Independence analysis. Bliss scores >10 are indicated by “*” and are considered synergistic. […] Synergy as reported using Bliss may be underrepresented within cytotoxic dose ranges. Growth death index values are shown for the combination titration and each single agent Compound A (Cmpd A) and Indisulam on a scale of −100 to 100 with the midpoint (0) being the number of cells at the beginning of the combination (T0). Scores less than 0 are indicated by “**” and are representative of a cytotoxic response. Bliss and GDI values are shown for five MTAP-deficient cell lines: NCI-1H838 (14A), SW900 (14B), RT112/84 (14C), UMUC5 (141)), and UMUC11 (14E).
(§6) Synergy was measured across the Chloroquinoxaline Sulfonamide titration with 1000 nM Compound A by Bliss Independence analysis.

UMUC11 = details: for GDI (growth death index), single agent Cmpd A: UMUC11, 1000 nM Compound A
Protocol: as §1, §2, §3, §4, §5, §6

UMUC5 = details: for GDI (growth death index), single agent Cmpd A: UMUC5, 1000 nM Compound A
Protocol: as §1, §2, §3, §4, §5, §6

RT112/84 = details: for GDI (growth death index), single agent Cmpd A: RT112/84, 1000 nM Compound A
Protocol: as §1, §2, §3, §4, §5, §6

## Nc1nc(=O)n(-c2ccccc2Cl)c2nc(C(F)(F)F)ccc12 [Compound A]
SW900; Table 16B
  GDI (growth death index), single agent Cmpd A: 100
SW900; Table 18B
  GDI (growth death index), single agent Cmpd A: 100
UMUC11; Table 16E
  GDI (growth death index), single agent Cmpd A: 100
UMUC11; Table 18E
  GDI (growth death index), single agent Cmpd A: 100
UMUC11; single agent Cmpd A, 1000 nM
  GDI: 100
UMUC5; Table 16D
  GDI (growth death index), single agent Cmpd A: 58
UMUC5; Table 18D
  GDI (growth death index), single agent Cmpd A: 58
UMUC5; single agent Cmpd A, 1000 nM
  GDI: 58
RT112/84; Table 16C
  GDI (growth death index), single agent Cmpd A: 62
RT112/84; Table 18C
  GDI (growth death index), single agent Cmpd A: 62
RT112/84; single agent Cmpd A, 1000 nM
  GDI: 62
